Reference: patent publication US20090005398A1, “Methods For The Treatment of Central Nervous System Tumors” (priority 2007, published 2009)

Experiments:
Assay type in all cases: cell-based
HT29 = assay: Cell-Titer-Glo cell proliferation; settings: Homo sapiens, HT-29, colon, 72 h
Procedure: (§1) Exponentially growing cell lines of different tumor origins, cultured in appropriate media containing 10% fetal bovine serum at 37° C. in a 5% CO2 incubator were plated at low density (less than 2000 cells/well) in 96-well plates. Twenty four hours post-plating, cells were treated with different concentrations of compound ranging from 10 uM to 0.04 nM. Several wells were left untreated as a control. Seventy two hours post-treatment, cell numbers were determined using 50-100 ul per well of CellTiter-Glo (Promega #G7573). Plates were incubated at room temperature for 15 minutes and the chemiluminescent signal was read on the Victor V or Envison 2100 reader.
(§2) Concentration of compound that inhibited 50% of cell growth (IC50) was determined by 4 parameter fit of data using XLfit, (value of no cell control was subtracted from all samples for background). The Cell-Titer Glo data are shown in Table 3 below and represent a compilation of several different experiments, each performed using the general parameters outlined above, although minor variations may have been employed in some instances.

A549-L = assay: Cell-Titer-Glo cell proliferation; settings: lung, 72 h
Procedure: as §1, §2

MCF7 = assay: Cell-Titer-Glo cell proliferation; settings: Homo sapiens, breast, 72 h
Procedure: as §1, §2

HCT116 = assay: Cell-Titer-Glo cell proliferation; settings: Homo sapiens, HCT-116, colon, 72 h
Procedure: as §1, §2

PANC-1 = assay: Cell-Titer-Glo cell proliferation; settings: Homo sapiens, pancreas, 72 h
Procedure: as §1, §2

Hela = assay: Cell-Titer-Glo cell proliferation; settings: Homo sapiens, cervix, 72 h
Procedure: as §1, §2

P388 = assay: Cell-Titer-Glo cell proliferation; settings: Mus musculus, blood, 72 h
Procedure: as §1, §2

HN5 = assay: Cell-Titer-Glo cell proliferation; settings: Homo sapiens, head and neck, 72 h
Procedure: as §1, §2

ASPC3 = assay: Cell-Titer-Glo cell proliferation; settings: pancreas, 72 h
Procedure: as §1, §2

LNCaP = assay: Cell-Titer-Glo cell proliferation; settings: Homo sapiens, prostate, 72 h
Procedure: as §1, §2

BXPC3 = assay: Cell-Titer-Glo cell proliferation; settings: Homo sapiens, BXPC-3, pancreas, 72 h
Procedure: as §1, §2

MX-1 = assay: Cell-Titer-Glo cell proliferation; settings: Homo sapiens, MX1, breast, 72 h
Procedure: as §1, §2

MV522 = assay: Cell-Titer-Glo cell proliferation; settings: lung, 72 h
Procedure: as §1, §2

SKOV-3 = assay: Cell-Titer-Glo cell proliferation; settings: Homo sapiens, SK-OV-3, ovary, 72 h
Procedure: as §1, §2

MDA-MB-468 = assay: Cell-Titer-Glo cell proliferation; settings: Homo sapiens, breast, 72 h
Procedure: as §1, §2

H1299 = assay: Cell-Titer-Glo cell proliferation; settings: Homo sapiens, NCI-H1299, lung, 72 h
Procedure: as §1, §2

COLO205 = assay: Cell-Titer-Glo cell proliferation; settings: Homo sapiens, COLO 205, colon, 72 h
Procedure: as §1, §2

H4 = assay: Multiple cell line screen, cell proliferation; settings: 72 h; glioma; nuclei count, 3 days
Procedure: (§3) Growth properties for multiple cell lines were used to determine two seeding densities for each cell line that would be used in the screen. Cell lines were thawed and grown to 70-80% confluency before being used in the assay. On day −1, cells were seeded at 2 densities in 384-well plates and incubated at 37° C. overnight. Stock compound plates were prepared in advance which contained dimethyl sulfoxide (DMSO) alone and a 9-point half-log decreasing dose range of the compound in DMSO. These plates were stored at −80° C. and each plate was only thawed once and used. On day 0, the main assay plates received compound or DMSO via a sonic delivery system (ECHO). The highest final concentration of compound of the dose range in the culture plates was 10 uM. These plates were cultured at 37° C. for 3 days.
(§4) On day 3, the compound treated plates were stained and fixed to measure proliferation, apoptosis, and mitotic index. A nuclear stain was used to identify cells in the wells. By counting the number of nuclei, the proliferation index of compound treated groups were calculated as a percentage relative to the DMSO control, which was set to 100%. The IC50 values were calculated using model 205 in ExcelFit.

SF-295 = assay: Multiple cell line screen, cell proliferation; settings: Homo sapiens, SF-295, 72 h; glioblastoma; nuclei count, 3 days
Procedure: as §3, §4

SW1088 = assay: Multiple cell line screen, cell proliferation; settings: Homo sapiens, SW1088, 72 h; astrocytoma; nuclei count, 3 days
Procedure: as §3, §4

CCF-SSTG1 = assay: Multiple cell line screen, cell proliferation; settings: 72 h; astrocytoma; nuclei count, 3 days
Procedure: as §3, §4

U-87MG = assay: Multiple cell line screen, cell proliferation; settings: Homo sapiens, 72 h, glioblastoma, astrocytoma, nuclei count, 3 days
Procedure: as §3, §4

DK-MG = assay: Multiple cell line screen, cell proliferation; settings: 72 h; glioblastoma; nuclei count, 3 days
Procedure: as §3, §4

A172 = assay: Multiple cell line screen, cell proliferation; settings: Homo sapiens, A 172, 72 h; glioblastoma; nuclei count, 3 days
Procedure: as §3, §4

SNB-19 = assay: Multiple cell line screen, cell proliferation; settings: Homo sapiens, SNB-19, 72 h; glioblastoma; nuclei count, 3 days
Procedure: as §3, §4

D283Med = assay: Multiple cell line screen, cell proliferation; settings: Homo sapiens, D283 Med, 72 h; medulloblastoma; nuclei count, 3 days
Procedure: as §3, §4

DBTRG-05MG = assay: Multiple cell line screen, cell proliferation; settings: Homo sapiens, 72 h, glioblastoma, nuclei count, 3 days
Procedure: as §3, §4

SNB-75 = assay: Multiple cell line screen, cell proliferation; settings: Homo sapiens, SNB-75, 72 h; glioblastoma; nuclei count, 3 days
Procedure: as §3, §4

SF-268 = assay: Multiple cell line screen, cell proliferation; settings: Homo sapiens, SF-268, 72 h; glioblastoma; nuclei count, 3 days
Procedure: as §3, §4

SF-539 = assay: Multiple cell line screen, cell proliferation; settings: Homo sapiens, SF-539, 72 h; astrocytoma; nuclei count, 3 days
Procedure: as §3, §4

In the case of `C[C@@H](Oc1cc(-n2cnc3ccc(CN4CCN(C)CC4)cc32)sc1C(N)=O)c1ccccc1C(F)(F)F` [Example 1, 5-{6-[(4-Methylpiperazin-1-yl)methyl]-1H-benzimidazol-1-yl}-3-{(1R)-1-[2-(trifluoromethyl)phenyl]ethoxy}thiophene-2-carboxamide], the IC50 (HT29) is reported as less than 500 nM, the IC50 (A549-L) is reported as less than 500 nM and the IC50 (MCF7) is reported as less than 500 nM. For the same molecule, the IC50 (HCT116) was less than 500 nM, the IC50 (PANC-1) was less than 500 nM and the IC50 (Hela) was less than 500 nM. It also gave an IC50 (P388) of less than 500 nM, an IC50 (HN5) of less than 500 nM and an IC50 (ASPC3) of less than 500 nM. The IC50 (LNCaP) was less than 500 nM, the IC50 (BXPC3) was less than 500 nM and the IC50 (MX-1) was less than 500 nM. It also gave an IC50 (MV522) of less than 500 nM, an IC50 (SKOV-3) of less than 500 nM and an IC50 (MDA-MB-468) of less than 500 nM. For the same molecule, the IC50 (H1299) was less than 500 nM, the IC50 (COLO205) was less than 500 nM and the IC50 (H4) was less than 50 nM. For the same molecule, the IC50 (SF-295) was less than 50 nM, the IC50 (SW1088) was less than 50 nM and the IC50 (CCF-SSTG1) was less than 50 nM. It also gave an IC50 (U-87MG) of less than 50 nM, an IC50 (DK-MG) of less than 50 nM and an IC50 (A172) of less than 50 nM. It also gave an IC50 (SNB-19) of less than 50 nM, an IC50 (D283Med) of less than 50 nM and an IC50 (DBTRG-05MG) of less than 50 nM. For the same molecule, the IC50 (SNB-75) was 50 to 100 nM, the IC50 (SF-268) was less than 50 nM and the IC50 (SF-539) was less than 50 nM.
